Measurements from patent US7750150B2, “Process for producing acid adduct salt of polyacidic base compound” (Kowa Co., Ltd., priority 2003, dated 2010).
Read-outs that look alike come from different tables or passages of the source.

Experiments:
Oral absorption = assay type: in vivo; conditions: statement in words, background art
[1] = Solubility of the acid addition salts; conditions: for water solubility: statement in words, background art
pH of aqueous solution = assay type: physicochemical
[2] = Thermal stability (HPLC purity after storage relative to before storage); assay type: physicochemical
Experimental: (Note) Thermal Stability:
The purity of each acid addition salt of the polyacidic basic compound stored at 80° C. for 10 days was determined by HPLC measurement relative to its purity before the storage with the proviso that the disulfate 1.5-water adduct and the dimaleate were stored at 60° C. for 7 days before their storage at 80° C. for 10 days.

[3] = Hygroscopicity (weight change on storage at 25° C. and 83% relative humidity); assay type: physicochemical; conditions: weight change after 4 days at 25° C. and 83% relative humidity
Experimental: (§1) A weight change of each acid addition salt was measured after storing it for 4 days under conditions of 25° C. and 83% relative humidity. • TG: Thermogravimetric Analysis • DSC: Differential Scanning Calorimetry

[4] = Powder X-ray diffraction (degree of crystallinity); assay type: physicochemical
Excerpt: (§2) A powder X-ray diffraction pattern of 2-[4-[2-(benzimidazol-2-ylthio)ethyl]piperazin-1-yl]-N-[2,4-bis(methylthio)-6-methyl-3-pyridyl]acetamide monohydrochloride 0.9-water adduct is illustrated in FIG. 1, and the results of its TG (thermogravimetric analysis)-DSC (differential scanning calorimetry) measurements are shown in FIG. 2. Further, a powder X-ray diffraction pattern of 2-[4-[2-(benzimidazol-2-ylthio)ethyl]piperazin-1-yl]-N-[2,4-bis(methylthio)-6-methyl-3-pyridyl]acetamide tetrahydrochloride 2-water adduct is illustrated in FIG. 3, and the results of its TG-DSC measurements are shown in FIG. 4. A powder X-ray diffraction pattern of 2-[4-[2-(benzimidazol-2-ylthio)ethyl]piperazin-1-yl]-N-[2,4-bis(methylthio)-6-methyl-3-pyridyl]acetamide disulfate 1.5-water adduct is illustrated in FIG. 5, and the results of its TG-DSC measurements are shown in FIG. 6. A powder X-ray diffraction pattern of 2-[4-[2-(benzimidazol-2-ylthio)ethyl]piperazin-1-yl]-N-[2,4-bis(methylthio)-6-methyl-3-pyridyl]acetamide monosulfate 4-water adduct is illustrated in FIG. 7, and the results of its TG-DSC measurements are shown in FIG. 8. A powder X-ray diffraction pattern of 2-[4-[2-(benzimidazol-2-ylthio)ethyl]piperazin-1-yl]-N-[2,4-bis(methylthio)-6-methyl-3-pyridyl]acetamide monosulfate is illustrated in FIG. 9, and the results of its TG-DSC measurements are shown in FIG. 10. A powder X-ray diffraction pattern of 2-[4-[2-(benzimidazol-2-ylthio)ethyl]piperazin-1-yl]-N-[2,4-bis(methylthio)-6-methyl-3-pyridyl]acetamide dimaleate is illustrated in FIG. 11, and the results of its TG-DSC measurements are shown in FIG. 12.

[5] = TG (thermogravimetric analysis); assay type: physicochemical; conditions: weight change on heating
Excerpt: as §2, §1

[6] = stored at 60° C. for 7 days before storage at 80° C. for 10 days
[7] = listed as 2-[4-[2-(benzimidazol-2-ylthio)ethyl]piperazin-1-yl]-N-[2,4-bis(methylthio)-6-me
[8] = listed as tetrahydrochloride 2-water adduct

SMILES	pH of 1% aq. Solution (pH of aqueous solution)	Hygroscopicity [3]	Powder X-ray [4]	TG [5]	Solubility [1] [mg/mL]	Thermal stability ([2]; stored at 80° C. for 10 days) [%]	other results
Cc1cc(OCC(F)(F)F)c(NC(=O)CN2CCN(CCSc3nc4cc(F)c(F)cc4[nH]3)CC2)c(OCC(F)(F)F)n1.Cl	–	–	–	–	–	–	melting point: 186 to 187 °C
CSc1cc(C)nc(SC)c1NC(=O)CN1CCN(CCSc2nc3ccccc3[nH]2)CC1 [2-[4-[2-(benzimidazol-2-ylthio)ethyl]piperazin-1-yl]-N-[2,4-bis(methylthio)-6-methyl-3-pyridyl]acetamide]	–	–	–	–	–	–	oral absorption (Oral absorption): little well; water solubility [1]: too low
CSc1cc(C)nc(SC)c1NC(=O)CN1CCN(CCSc2nc3ccccc3[nH]2)CC1.O=C(O)/C=C\C(=O)O.O=C(O)/C=C\C(=O)O [Dimaleate, 2-[4-[2-(benzimidazol-2-ylthio)ethyl]piperazin-1-yl]-N-[2,4-bis(methylthio)-6-methyl-3-pyridyl]acetamide dimaleate]	2.62	2%	Low	–	–	–	Thermal stability [2, 6]: 93.1%; Solubility (physchem): 15 mg/mL
CSc1cc(C)nc(SC)c1NC(=O)CN1CCN(CCSc2nc3ccccc3[nH]2)CC1.CSc1cc(C)nc(SC)c1NC(=O)CN1CCN(CCSc2nc3ccccc3[nH]2)CC1.O.O.O.O=S(=O)(O)O.O=S(=O)(O)O.O=S(=O)(O)O.O=S(=O)(O)O [Disulfate 1.5-water adduct, 2-[4-[2-(benzimidazol-2-ylthio)ethyl]piperazin-1-yl]-N-[2,4-bis(methylthio)-6-methyl-3-pyridyl]acetamide disulfate 1.5-water adduct]	2.00	10%	Low	No change until	>1000	–	Thermal stability [2, 6]: 99.6%
CSc1cc(C)nc(SC)c1NC(=O)CN1CCN(CCSc2nc3ccccc3[nH]2)CC1.Cl.O [Monohydrochloride 0.9-water adduct, 2-[4-[2-(benzimidazol-2-ylthio)ethyl]piperazin-1-yl]-N-[2,4-bis(methylthio)-6-methyl-3-pyridyl]acetamide monohydrochloride 0.9-water adduct]	–	None	–	No change until	0.5	99.2	pH of aq. Solution (pH of aqueous solution; 0.05% aq. solution): 5.2 (0.05%); Thermal stability ([2]; stored at 80° C. for 10 days, listed as 2-[4-[2-(benzimidazol-2-ylthio)ethyl]piperazin-1-yl]-N-[2,4-bis(methylthio)-6-me): excellent in thermal stability; Hygroscopicity [3, 7]: no hygroscopicity; Powder X-ray [4, 7]: high degree of crystallinity; TG [5, 7]: without any substantial weight change
CSc1cc(C)nc(SC)c1NC(=O)CN1CCN(CCSc2nc3ccccc3[nH]2)CC1.O.O.O.O.O=S(=O)(O)O [Monosulfate 4-water adduct, 2-[4-[2-(benzimidazol-2-ylthio)ethyl]piperazin-1-yl]-N-[2,4-bis(methylthio)-6-methyl-3-pyridyl]acetamide monosulfate 4-water adduct]	–	None	–	Decreased 10%	5	99.4	pH of aq. Solution (pH of aqueous solution; 0.5% aq. solution): 3.2 (0.5%)
CSc1cc(C)nc(SC)c1NC(=O)CN1CCN(CCSc2nc3ccccc3[nH]2)CC1.O=S(=O)(O)O [Monosulfate, 2-[4-[2-(benzimidazol-2-ylthio)ethyl]piperazin-1-yl]-N-[2,4-bis(methylthio)-6-methyl-3-pyridyl]acetamide monosulfate]	–	15%	Low	No change until	200	–	pH of aq. Solution (pH of aqueous solution; 0.5% aq. solution): 3.2 (0.5%)
CSc1cc(C)nc(SC)c1NC(=O)CN1CCN(CCSc2nc3ccccc3[nH]2)CC1.Cl.Cl.Cl.Cl.O.O [Tetrahydrochloride 2-water adduct, 2-[4-[2-(benzimidazol-2-ylthio)ethyl]piperazin-1-yl]-N-[2,4-bis(methylthio)-6-methyl-3-pyridyl]acetamide tetrahydrochloride 2-water adduct]	1.97	10%	Low	Gradual removal	>1000	98.5	Hygroscopicity [3, 8]: high hygroscopicity; Powder X-ray [4, 8]: low degree of crystallinity; oral absorption (Oral absorption): substantially improved; water solubility [1]: substantially improved
